Assay results published in patent US12297207B2, “Maytansinoid derivatives, conjugates thereof, and methods of use” (priority 2015, dated 2025).
Like-named read-outs stand apart in the source and are kept apart here.

What was measured:
Ovcar3 (Muc16+) cells = test: In vitro cytotoxicity assay (CCK8 viability), Ovcar3 cells; assay type: cell-based; conditions: for IC50: read-out: Ovcar3 IC50
Method: (§1) In this Example, the ability of various antibody-drug conjugates or their associated payloads to kill antigen-expressing tumor cells in vitro was assessed.
(§2) Ovcar3 (Muc16+) or C4-2 (PSMA+) cells were seeded in 96 well plates at 3000 (C42) cells per well in complete growth media and grown overnight. For cell viability curves, serially diluted conjugates or payloads were added to the cells at final concentrations ranging from 300 nM to 5 pM and incubated for 3 days. To measure viability, cells were incubated with CCK8 (Dojindo) for the final 1-3 hours and the absorbance at 450 nm (OD450) was determined on a Victor (Perkin Elmer). Background OD450 levels determined from digitonin ([…]) treated cells were subtracted from all wells and viability is expressed as a percentage of the untreated controls. IC50 values were determined from a four-parameter logistic equation over a 10-point response curve (GraphPad Prism). All conjugate curves and IC50 values are corrected for payload equivalents.

C4-2 (PSMA+) cells = test: In vitro cytotoxicity assay (CCK8 viability), C4-2 cells; assay type: cell-based; conditions: for IC50: read-out: C4-2 IC50
Method: as §1, §2

[1] = test system: T47D ductal carcinoma line (PRLR+); test: In vitro cytotoxicity assay (CellTiter-Glo), T47D cells; assay type: cell-based, human; conditions: for IC50: 5 days
Method: The present example provides cytotoxicity assays for conjugates provided herein. To evaluate the ability of anti-PRLR antibodies conjugated with 63, 60, 77, and 78 to kill a PRLR expressing cell line, an in vitro cytotoxicity assay using a T47D ductal carcinoma line (ATCC, #HTB-133), which was previously determined to express >27,000 copies of human PRLR at its cell surface, was utilized.
For the assay, T47D cells were seeded onto white 96 well plates at 2,000 cells/well in media containing DMEM supplemented with 10% FBS, NEAA, and pencillin/streptomycinin (complete media). They were grown overnight at 37° C. in 5% CO2. To determine cell viability curves, the following day antibody drug conjugates, unconjugated antibodies, or free payloads were added to the cells at final serial dilutions ranging from 100 nM to 0.01 nM in complete medium and then incubated for an additional 5 days. Luciferase activity was detected after the addition of CellTiter-Glo™ reagent (Promega, G7571) to each well, which contains reagents to lyse the remaining viable cells to release their ATP, ATPase inhibitors to prevent degradation of the ATP, as well as luciferin and luciferase to catalyse the luminescent reaction. Viable cells prior to addition of CellTiter-Glo will be the only source of ATP since the dead cells in culture will not synthesis ATP and any of their released ATP will be destroyed via endogenous ATPases. Relative light units (RLUs) were measured on a Victor luminometer (PerkinElmer) and the results were determined using a four-parameter logistic equation over a 10-point response curve (GraphPad Prism). All measured values and calculated IC50 values were corrected for payload equivalents. All IC50 values are expressed in nM concentration and percent kill is reported for the highest concentration tested.

[2] = Table 5, payloads only, read-out: T47D IC50
[3] = Table 5, payloads only, highest concentration tested

SMILES | C4-2 % kill (C4-2 (PSMA+) cells; Table 5, payloads only) [%] | IC50 (C4-2 (PSMA+) cells; Table 5, payloads only) [nM] | IC50 [1, 2] [nM] | T47D % kill [1, 3] [%] | also measured
COc1cc2cc(c1Cl)N(C)C(=O)C[C@H](OC(=O)[C@H](C)N(C)C(=O)c1ccc(N)cc1C(F)(F)F)[C@]1(C)O[C@H]1[C@H](C)[C@@H]1C[C@@](O)(NC(=O)O1)[C@H](OC)/C=C/C=C(\C)C2 [Compound 31, Maytansin-N-methyl-L-alanine-(2-trifluoromethyl-4-amino)benzamide] | 82 | 0.1 | – | – | Ovcar3 % kill (Ovcar3 (Muc16+) cells; Table 2, payloads only): 93%; IC50 (Ovcar3 (Muc16+) cells; Table 2, payloads only): 0.04 nM; Ovcar3 % kill (Ovcar3 (Muc16+) cells; Table 5, payloads only): 93%; IC50 (Ovcar3 (Muc16+) cells; Table 5, payloads only): 0.04 nM; C4-2 % kill (C4-2 (PSMA+) cells; Table 2, payloads only): 82%; IC50 (C4-2 (PSMA+) cells; Table 2, payloads only): 0.1 nM
COc1cc2cc(c1Cl)N(C)C(=O)C[C@H](OC(=O)[C@H](C)N(C)C(=O)c1cc(F)c(N)cc1F)[C@]1(C)O[C@H]1[C@H](C)[C@@H]1C[C@@](O)(NC(=O)O1)[C@H](OC)/C=C/C=C(\C)C2 [Compound 39, Maytansin-N-methyl-L-alanine-N-(2,5-difluoro-4-amino)benzamide] | – | – | 0.02 | 70 | –
COc1cc2cc(c1Cl)N(C)C(=O)C[C@H](OC(=O)[C@H](C)N(C)C(=O)c1ccc(N)c(F)c1)[C@]1(C)O[C@H]1[C@H](C)[C@@H]1C[C@@](O)(NC(=O)O1)[C@H](OC)/C=C/C=C(\C)C2 [Compound 41, Maytansin-N-methyl-L-alanine-(3-fluoro-4-amino)benzamide] | – | – | 0.03 | 72 | –
COc1cc2cc(c1Cl)N(C)C(=O)C[C@H](OC(=O)[C@H](C)N(C)C(=O)c1ccc(N)c(Cl)c1)[C@]1(C)O[C@H]1[C@H](C)[C@@H]1C[C@@](O)(NC(=O)O1)[C@H](OC)/C=C/C=C(\C)C2 [Compound 43, Maytansin-N-methyl-L-alanine-(3-chloro-4-amino)benzamide] | – | – | 0.01 | 71 | –
COc1cc2cc(c1Cl)N(C)C(=O)CC(OC(=O)C(C)N(C)C(=O)c1ccc(N)c3cccnc13)C1(C)OC1C(C)C1CC(O)(NC(=O)O1)C(OC)C=CC=C(C)C2 [Compound 45, Maytansin-N-methyl-L-alanine-(5-amino-8-carboxyquinoline)carboxamide] | – | – | 3.73 | 72 | –
COc1cc2cc(c1Cl)N(C)C(=O)C[C@H](OC(=O)[C@H](C)N(C)C(=O)c1ccc(N)c(Br)c1)[C@]1(C)O[C@H]1[C@H](C)[C@@H]1C[C@@](O)(NC(=O)O1)[C@H](OC)/C=C/C=C(\C)C2 [Compound 47, Maytansin-N-methyl-L-alanine-(3-bromo-4-amino)benzamide] | – | – | 0.01 | 72 | –
COc1cc(C(=O)N(C)[C@@H](C)C(=O)O[C@H]2CC(=O)N(C)c3cc(cc(OC)c3Cl)C/C(C)=C/C=C/[C@@H](OC)[C@@]3(O)C[C@H](OC(=O)N3)[C@@H](C)[C@@H]3O[C@@]23C)ccc1N [Compound 49, Maytansin-N-methyl-L-alanine-(3-methoxy-4-amino)benzamide] | – | – | 0.06 | 70 | IC50 ([1]; corrected for payload equivalents, read-out: IC50 (cytotoxicity of T47D cells)): 0.03 nM; maximum percent killing ([1]; T47D cells, highest concentration tested): 69%
COc1cc2cc(c1Cl)N(C)C(=O)C[C@H](OC(=O)[C@H](C)N(C)C(=O)c1ccc(N)cc1C)[C@]1(C)O[C@H]1[C@H](C)[C@@H]1C[C@@](O)(NC(=O)O1)[C@H](OC)/C=C/C=C(\C)C2 [Compound 51, Maytansin-N-methyl-L-alanine-(2-methyl-4-amino)benzamide] | – | – | 0.49 | 72 | –
COc1cc2cc(c1Cl)N(C)C(=O)CC(OC(=O)C(C)N(C)C(=O)c1ccc(N)c(C)c1)C1(C)OC1C(C)C1CC(O)(NC(=O)O1)C(OC)C=CC=C(C)C2 [Compound 53, Maytansin-N-methyl-L-alanine-(3-methyl-4-amino)benzamide] | – | – | 0.2 | 72 | –
COc1cc2cc(c1Cl)N(C)C(=O)C[C@H](OC(=O)[C@H](C)N(C)C(=O)c1ccc(N)c3ncccc13)[C@]1(C)O[C@H]1[C@H](C)[C@@H]1C[C@@](O)(NC(=O)O1)[C@H](OC)/C=C/C=C(\C)C2 [Compound 55, Maytansin-N-methyl-L-alanine-(8-amino-5-carboxyquinoline)carboxamide] | – | – | 0.18 | 75 | –
COc1ccc(N)cc1C(=O)N(C)[C@@H](C)C(=O)O[C@H]1CC(=O)N(C)c2cc(cc(OC)c2Cl)C/C(C)=C/C=C/[C@@H](OC)[C@@]2(O)C[C@H](OC(=O)N2)[C@@H](C)[C@@H]2O[C@@]12C [Compound 65, Maytansin-N-methyl-L-alanine-N-(2-methoxy-5-amino)benzamide] | – | – | 1.13 | 72 | –
COc1ccc(C(=O)N(C)[C@@H](C)C(=O)O[C@H]2CC(=O)N(C)c3cc(cc(OC)c3Cl)C/C(C)=C/C=C/[C@@H](OC)[C@@]3(O)C[C@H](OC(=O)N3)[C@@H](C)[C@@H]3O[C@@]23C)cc1N [Compound 67, Maytansin-N-methyl-L-alanine-N-(3-amino-4-methoxy)benzamide] | – | – | 0.19 | 71 | –
COc1cc2cc(c1Cl)N(C)C(=O)C[C@H](OC(=O)[C@H](C)N(C)C(=O)c1cc(N)cc(F)c1)[C@]1(C)O[C@H]1[C@H](C)[C@@H]1C[C@@](O)(NC(=O)O1)[C@H](OC)/C=C/C=C(\C)C2 [Compound 69, Maytansin-N-methyl-L-alanine-N-(3-amino-5-fluoro)benzamide] | – | – | 0.39 | 73 | –
COc1cc2cc(c1Cl)N(C)C(=O)CC(OC(=O)C(C)N(C)C(=O)c1cc(N)ccc1F)C1(C)OC1C(C)C1CC(O)(NC(=O)O1)C(OC)C=CC=C(C)C2 [Compound 71, Maytansin-N-methyl-L-alanine-N-(2-fluoro-5-amino)benzamide] | – | – | 0.73 | 68 | –
COc1cc2cc(c1Cl)N(C)C(=O)C[C@H](OC(=O)[C@H](C)N(C)C(=O)c1cccc(N)c1)[C@]1(C)O[C@H]1[C@H](C)[C@@H]1C[C@@](O)(NC(=O)O1)[C@H](OC)/C=C/C=C(\C)C2 [Compound 73, Maytansin-N-methyl-L-alanine-N-(3-amino)benzamide] | – | – | 0.57 | 73 | –
COc1cc2cc(c1Cl)N(C)C(=O)C[C@H](OC(=O)[C@H](C)N(C)C(=O)c1ccc(N)c(S(C)(=O)=O)c1)[C@]1(C)O[C@H]1[C@H](C)[C@@H]1C[C@@](O)(NC(=O)O1)[C@H](OC)/C=C/C=C(\C)C2 [Compound 80, Maytansin-N-methyl-L-alanine-N-(3-methylsulfonyl-4-amino)benzamide] | 91 | 1.3 | – | – | –
COc1cc2cc(c1Cl)N(C)C(=O)CC(OC(=O)C(C)N(C)C(=O)c1ccc(N)c(O)c1)C1(C)OC1C(C)C1CC(O)(NC(=O)O1)C(OC)C=CC=C(C)C2 [Compound 82, Maytansin-N-methyl-L-alanine-N-(3-hydroxy-4-amino)benzamide] | 93 | 19.9 | – | – | –
COc1cc2cc(c1Cl)N(C)C(=O)C[C@H](OC(=O)[C@H](C)N(C)C(=O)c1ccccc1N)[C@]1(C)O[C@H]1[C@H](C)[C@@H]1C[C@@](O)(NC(=O)O1)[C@H](OC)/C=C/C=C(\C)C2 [Compound 84, Maytansin-N-methyl-L-alanine-N-(2-amino)benzamide] | 88 | 0.07 | – | – | –
COc1ccc(C(=O)N(C)[C@@H](C)C(=O)O[C@H]2CC(=O)N(C)c3cc(cc(OC)c3Cl)C/C(C)=C/C=C/[C@@H](OC)[C@@]3(O)C[C@H](OC(=O)N3)[C@@H](C)[C@@H]3O[C@@]23C)c(N)c1 [Compound 86, Maytansin-N-methyl-L-alanine-N-(4-methoxy-2-amino)benzamide] | 90 | 0.73 | – | – | –
COc1cc2cc(c1Cl)N(C)C(=O)C[C@H](OC(=O)[C@H](C)N(C)C(=O)c1ccc(N)c(N3CCOCC3)c1)[C@]1(C)O[C@H]1[C@H](C)[C@@H]1C[C@@](O)(NC(=O)O1)[C@H](OC)/C=C/C=C(\C)C2 [Compound 88, Maytansin-N-methyl-L-alanine-N-(3-morpholino-4-amino)benzamide] | 89 | 0.05 | – | – | –
COc1cc2cc(c1Cl)N(C)C(=O)C[C@H](OC(=O)[C@H](C)N(C)C(=O)c1ccc(N)c(NC(C)=O)c1)[C@]1(C)O[C@H]1[C@H](C)[C@@H]1C[C@@](O)(NC(=O)O1)[C@H](OC)/C=C/C=C(\C)C2 [Compound 90, Maytansin-N-methyl-L-alanine-N-(3-acetamido-4-amino)benzamide] | 86 | > 100 | – | – | –
